Measured values published in patent US20130137739A1, “SOLID DISPERSION COMPRISING TRIAZOLE COMPOUND” (Astellas Pharma, Inc., priority 2010, published 2013).
In brackets after ≈: the same amount, converted by molar mass. Like-named read-outs stand apart in the source and are kept apart here.

Assays:
[1] = Glass transition point (Tg) by DSC; format: physicochemical; details: Compound A itself
Method: The glass transition point of a solid dispersion can be obtained by subjecting the solid dispersion to calorimetric measurements using DSC and plotting a curve of changes in the amount of heat. In more practical terms a sample of about 10 mg is weighed out onto an aluminum pan and calorimetry is carried out for temperatures from 0° C. and 150° C. with a rate of temperature increase of 5° C. per minute. In the process of heating the sample heat is absorbed or generated at the glass transition point and, as a result, the baseline of the calorimetric curve will shift downward. Extended lines are drawn for the two baselines, namely the original baseline and the shifted baseline, and the glass transition temperature is obtained from the intersection point of the ½ line between the two baselines and the calorimetric curve.
Particles of the solid dispersion (about 10 mg) of each example and comparative example were weighed out on an aluminum pan and calorimetric measurements were made at temperatures between 0° C. to 150° C. with a rate of temperature increase of 5° C. per minute. Heat was absorbed or generated at the glass transition point in the course of heating the sample and, as a result, the baseline of the calorimetric curve shifted downward. […]

[2] = Solubility of Compound A in water and organic solvents; format: physicochemical

- glass transition point of Compound A [1]: 4 °C
- solubility ([2]; acetone, organic solvent or mixture, room temperature, read-out: solubility in organic solvent: acetone): 82.2 mg/mL (≈ 264 mM)
- solubility ([2]; ethanol, organic solvent or mixture, room temperature, read-out: solubility in organic solvent: ethanol): 15.9 mg/mL (≈ 51.1 mM)
- solubility ([2]; polyethylene glycol, organic solvent or mixture, room temperature, read-out: solubility in organic solvent: polyethylene glycol): 6.3 mg/mL (≈ 20.2 mM)
- solubility ([2]; water, 37° C., read-out: solubility in water): 0.0107 mg/mL (≈ 0.0344 mM)
SMILES: COc1ccc(-c2nc(OC)nn2-c2ccc(OC)cc2)cc1 [Compound A, 3-methoxy-1,5-bis(4-methoxyphenyl)-1H-1,2,4-triazole]
